# Data from patent US8440652B2, “MST1 kinase inhibitors and methods of their use” (Lexicon Pharmaceuticals, Inc., priority 2011, dated 2013).
# Like-named read-outs stand apart in the source and are kept apart here.
# Biological target: T1, MST1 (Homo sapiens, UniProt Q13043)
# T1 sequence (Q13043 1-487): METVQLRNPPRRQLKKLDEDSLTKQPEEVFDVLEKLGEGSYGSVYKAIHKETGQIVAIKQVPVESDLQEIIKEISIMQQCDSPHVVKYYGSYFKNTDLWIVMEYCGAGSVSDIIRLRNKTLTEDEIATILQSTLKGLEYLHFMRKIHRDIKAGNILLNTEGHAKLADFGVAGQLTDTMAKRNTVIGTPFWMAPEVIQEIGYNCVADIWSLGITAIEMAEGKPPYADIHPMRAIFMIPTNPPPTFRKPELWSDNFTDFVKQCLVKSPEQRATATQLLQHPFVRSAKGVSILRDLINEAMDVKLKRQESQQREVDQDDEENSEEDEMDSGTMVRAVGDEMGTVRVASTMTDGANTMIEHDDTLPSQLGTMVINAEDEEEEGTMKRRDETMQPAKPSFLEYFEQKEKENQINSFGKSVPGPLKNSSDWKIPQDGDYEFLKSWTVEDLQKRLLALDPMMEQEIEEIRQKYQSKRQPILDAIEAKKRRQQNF
# Assay: In vitro measurement of MST1 inhibition (Z′-Lyte kinase assay)
# Type: biochemical
# Procedure: Assays were performed in low-volume 384-well black proxiplates (Perkin Elmer, PE-Blk-Proxi-6008269). Eight compounds were first diluted into LDV (Echo) plates using a Multiprobe, at a starting concentration of 1 mM compound in 100% DMSO. Using the ECHO, 75 nl compound was pinged into 384-well proxiplates. The starting concentration of compound in each assay plate is 7.5 uM, followed by 3-fold dilutions, to give quadruplicate ten-point concentration curves. A 3× solution of MST1 enzyme in kinase buffer (Invitrogen, PR4940C) was added to wells containing compound or DMSO controls, followed by a 10 minute preincubation step. Reactions were initiated by adding 5 μL of a mixture of ATP and Z′-Lyte S/T Pep 7 (Invitrogen, PV3180) and proceeded at RT for 1 hour. […] At the end of the kinase reaction, 10 ul of developing solution (Invitrogen, catalog #PR4876B; development buffer A diluted […] in development buffer B) was added to each well and incubated at RT for 1 hr. All wells were read on a Tecan at 400 nm excitation and 460 nm/530 nm emission. Plus and minus enzyme controls were used to calculate percent inhibition and IC50 curves were generated using Excel.
# [1] = 1 μM ATP, read-out: IC50 (μM) 1 μM ATP
# [2] = 50 μM ATP, read-out: IC50 (μM) 50 μM ATP
SMILES,IC50 [1],IC50 [2]
"C[C@@H]1C[C@H]1N(C)S(=O)(=O)c1ccc(-c2cnc(N)c(-c3ccc4c(c3)CCNC4=O)n2)cc1 [4-(5-amino-6-(1-oxo-1,2,3,4-tetrahydroisoquinolin-6-yl)pyrazin-2-yl)-N-methyl-N-((1R,2R)-2-methylcyclopropyl)benzenesulfonamide]",< 0.01 µM,< 0.01 µM
"CCCN(C)S(=O)(=O)c1ccc(-c2cnc(N)c(-c3ccc4c(c3)CCNC4=O)n2)cc1 [4-(5-amino-6-(1-oxo-1,2,3,4-tetrahydroisoquinolin-6-yl)pyrazin-2-yl)-N-methyl-N-propylbenzenesulfonamide]",< 0.01 µM,< 0.01 µM
"N#Cc1ccc(-c2cnc(N)c(-c3ccc4c(c3)CCNC4=O)n2)cc1 [4-(5-amino-6-(1-oxo-1,2,3,4-tetrahydroisoquinolin-6-yl)pyrazin-2-yl)benzonitrile]",< 0.05 µM,< 0.01 µM
"CN(C1CC1)S(=O)(=O)c1ccc(-c2cnc(N)c(-c3ccc4c(=O)[nH]ccc4c3)n2)cc1 [4-(5-amino-6-(1-oxo-1,2-dihydroisoquinolin-6-yl)pyrazin-2-yl)-N-cyclopropyl-N-methylbenzenesulfonamide]",< 0.01 µM,< 0.01 µM
"CN(C1CC1)S(=O)(=O)c1ccc(-c2cnc(N)c(-c3ccc4c(c3)CCCNC4=O)n2)cc1 [4-(5-amino-6-(1-oxo-2,3,4,5-tetrahydro-1H-benzo[c]azepin-7-yl)pyrazin-2-yl)-N-cyclopropyl-N-methylbenzenesulfonamide]",< 0.01 µM,< 0.01 µM
"CCN(C)S(=O)(=O)c1ccc(-c2cnc(N)c(-c3ccc4c(c3)CCCNC4=O)n2)cc1 [4-(5-amino-6-(1-oxo-2,3,4,5-tetrahydro-1H-benzo[c]azepin-7-yl)pyrazin-2-yl)-N-ethyl-N-methylbenzenesulfonamide]",< 0.05 µM,< 0.01 µM
"Cc1cc(-c2cnc(N)c(-c3ccc4c(c3)C3(CC3)CNC4=O)n2)ccc1S(=O)(=O)NC1CC1 [4-(5-amino-6-(1′-oxo-2′,3′-dihydro-1′H-spiro[cyclopropane-1,4′-isoquinolin]-6′-yl)pyrazin-2-yl)-N-cyclopropyl-2-methylbenzenesulfonamide]",< 0.01 µM,< 0.01 µM
"CN(C1CC1)S(=O)(=O)c1ccc(-c2cnc(N)c(-c3ccc4c(c3)C3(CC3)CNC4=O)n2)cc1 [4-(5-amino-6-(1′-oxo-2′,3′-dihydro-1′H-spiro[cyclopropane-1,4′-isoquinolin]-6′-yl)pyrazin-2-yl)-N-cyclopropyl-N-methylbenzenesulfonamide]",< 0.01 µM,< 0.01 µM
"Nc1ncc(-c2ccc(S(=O)(=O)NC3CC3)cc2)nc1-c1ccc2c(c1)C1(CC1)CNC2=O [4-(5-amino-6-(1′-oxo-2′,3′-dihydro-1′H-spiro[cyclopropane-1,4′-isoquinolin]-6′-yl)pyrazin-2-yl)-N-cyclopropylbenzenesulfonamide]",< 0.01 µM,< 0.01 µM
"N#Cc1ccc(-c2cnc(N)c(-c3ccc4c(c3)C3(CC3)CNC4=O)n2)cc1 [4-(5-amino-6-(1′-oxo-2′,3′-dihydro-1′H-spiro[cyclopropane-1,4′-isoquinolin]-6′-yl)pyrazin-2-yl)benzonitrile]",< 0.05 µM,< 0.01 µM
"CN1CCc2cc(-c3nc(-c4ccc(S(=O)(=O)N(C)C5CC5)cc4)cnc3N)ccc2C1=O [4-(5-amino-6-(2-methyl-1-oxo-1,2,3,4-tetrahydroisoquinolin-6-yl)pyrazin-2-yl)-N-cyclopropyl-N-methylbenzenesulfonamide]",< 0.15 µM,< 0.05 µM
"CC1(C)NC(=O)c2ccc(-c3nc(-c4ccc(S(=O)(=O)NC5CC5)cc4)cnc3N)cc21 [4-(5-amino-6-(3,3-dimethyl-1-oxoisoindolin-5-yl)pyrazin-2-yl)-N-cyclopropylbenzenesulfonamide]",< 0.05 µM,< 0.01 µM
"CN1Cc2cc(-c3nc(-c4ccc(S(=O)(=O)N(C)C5CC5)cc4)cnc3N)ccc2C(=O)N1 [4-(5-amino-6-(3-methyl-1-oxo-1,2,3,4-tetrahydrophthalazin-6-yl)pyrazin-2-yl)-N-cyclopropyl-N-methylbenzenesulfonamide]",< 0.05 µM,< 0.01 µM
"CC1CNc2cc(-c3nc(-c4ccc(S(=O)(=O)N(C)C5CC5)cc4)cnc3N)ccc2C(=O)N1 (stereo not shown) [4-(5-amino-6-(3-methyl-5-oxo-2,3,4,5-tetrahydro-1H-benzo[e][1,4]diazepin-8-yl)pyrazin-2-yl)-N-cyclopropyl-N-methylbenzenesulfonamide]",< 0.01 µM,< 0.01 µM
"Nc1ncc(-c2ccc(S(=O)(=O)NC3CC3)cc2)nc1-c1ccc2c(c1)C1(CC1)NC2=O [4-(5-amino-6-(3′-oxospiro[cyclopropane-1,1′-isoindolin]-6′-yl)pyrazin-2-yl)-N-cyclopropylbenzenesulfonamide]",< 0.05 µM,< 0.01 µM
"[2H]C1([2H])CNC(=O)c2ccc(-c3nc(-c4ccc(S(=O)(=O)N(C)C5CC5)cc4)cnc3N)cc21 [4-(5-amino-6-(4,4-dideutero-1-oxo-1,2,3,4-tetrahydroisoquinolin-6-yl)pyrazin-2-yl)-N-cyclopropyl-N-methylbenzenesulfonamide]",< 0.01 µM,< 0.01 µM
"[2H]C1([2H])CNC(=O)c2ccc(-c3nc(-c4ccc(S(=O)(=O)N(C5CC5)C([2H])([2H])[2H])cc4)cnc3N)cc21 [4-(5-amino-6-(4,4-dideutero-1-oxo-1,2,3,4-tetrahydroisoquinolin-6-yl)pyrazin-2-yl)-N-cyclopropyl-N-trideuteromethyl-benzenesulfonamide]",< 0.01 µM,< 0.01 µM
"[2H]C1([2H])CNC(=O)c2ccc(-c3nc(-c4ccc(S(=O)(=O)NC5CC5)cc4)cnc3N)cc21 [4-(5-amino-6-(4,4-dideutero-1-oxo-1,2,3,4-tetrahydroisoquinolin-6-yl)pyrazin-2-yl)-N-cyclopropylbenzenesulfonamide]",< 0.01 µM,< 0.01 µM
"CC1(C)C(=O)NC(=O)c2ccc(-c3nc(-c4ccc(S(=O)(=O)NC5CC5)cc4)cnc3N)cc21 [4-(5-amino-6-(4,4-dimethyl-1,3-dioxo-1,2,3,4-tetrahydroisoquinolin-6-yl)pyrazin-2-yl)-N-cyclopropylbenzenesulfonamide]",< 0.15 µM,< 0.15 µM
"Cc1cc(-c2cnc(N)c(-c3ccc4c(c3)C(C)(C)CNC4=O)n2)ccc1S(=O)(=O)NC1CC1 [4-(5-amino-6-(4,4-dimethyl-1-oxo-1,2,3,4-tetrahydroisoquinolin-6-yl)pyrazin-2-yl)-N-cyclopropyl-2-methylbenzenesulfonamide]",< 0.01 µM,< 0.01 µM
"CN(C1CC1)S(=O)(=O)c1ccc(-c2cnc(N)c(-c3ccc4c(c3)C(C)(C)CNC4=O)n2)cc1 [4-(5-amino-6-(4,4-dimethyl-1-oxo-1,2,3,4-tetrahydroisoquinolin-6-yl)pyrazin-2-yl)-N-cyclopropyl-N-methylbenzenesulfonamide]",< 0.01 µM,< 0.01 µM
"CC1(C)CNC(=O)c2ccc(-c3nc(-c4ccc(S(=O)(=O)NC5CC5)cc4)cnc3N)cc21 [4-(5-amino-6-(4,4-dimethyl-1-oxo-1,2,3,4-tetrahydroisoquinolin-6-yl)pyrazin-2-yl)-N-cyclopropylbenzenesulfonamide]",< 0.01 µM,< 0.01 µM
CN(C1CC1)S(=O)(=O)c1ccc(-c2cnc(N)c(-c3ccc4c(O)ncc(Br)c4c3)n2)cc1 [4-(5-amino-6-(4-bromo-1-hydroxyisoquinolin-6-yl)pyrazin-2-yl)-N-cyclopropyl-N-methylbenzenesulfonamide],< 0.01 µM,< 0.01 µM
"CN(C1CC1)S(=O)(=O)c1ccc(-c2cnc(N)c(-c3ccc4c(c3)NCCNC4=O)n2)cc1 [4-(5-amino-6-(5-oxo-2,3,4,5-tetrahydro-1H-benzo[e][1,4]diazepin-8-yl)pyrazin-2-yl)-N-cyclopropyl-N-methylbenzenesulfonamide]",< 0.01 µM,< 0.01 µM
"Nc1ncc(-c2ccc(S(=O)(=O)NC3CC3)cc2)nc1-c1ccc2c(c1)NCCNC2=O [4-(5-amino-6-(5-oxo-2,3,4,5-tetrahydro-1H-benzo[e][1,4]diazepin-8-yl)pyrazin-2-yl)-N-cyclopropylbenzenesulfonamide]",< 0.01 µM,< 0.01 µM
"Cc1cc(-c2cnc(N)c(-c3ccc4c(c3)OCCNC4=O)n2)ccc1S(=O)(=O)NC1CC1 [4-(5-amino-6-(5-oxo-2,3,4,5-tetrahydrobenzo[f][1,4]oxazepin-8-yl)pyrazin-2-yl)-N-cyclopropyl-2-methylbenzenesulfonamide]",< 0.05 µM,< 0.01 µM
